Test results as given in patent US11142543B2 (priority 2016, dated 2021).

Tests used:
ICR mice [1] = assay: Forced swimming test (FST), Example 38; format: in vivo; conditions: gavage 10 mg/Kg for 6 days, t-test
From the text: Forced swimming test (FST) to investigate the antidepressant activity of some compounds and some natural products of the present invention
(§1) Male ICR mice (body weight, 20±2 g) used in the experiment were purchased from the Experimental Animal Center of Shanghai Institute of Materia Medica, Chinese Academy of Sciences. They were free access to water and kept at room temperature (23 2) ° C. in natural light. All mice were randomly divided into a blank control group and a test group, with 10 mice in each group and 5 mice/cage. The experiment was started after 3 days of adaptation in the breeding environment. The mice were fasted for 12 hours before the experiment but free access to water. The specific administration method was gavage administration, and the administration dose of the administration group was 10 mg/Kg, and the blank control group was given an equal volume of 0.5% CMC-Na.
Specific procedures: The mice were continuously administered for 6 days, and tested 1 hour after the last administration. Firstly, the spontaneous activity of the mice was measured by the open field method, that is, the mice were individually placed in a cylindrical glass jar for 4 minutes, and the number of lifting arms within the last two minutes was recorded. The mice were then individually placed in a cylindrical glass jar (20 cm high and 14 cm in diameter) with a water depth of 10 cm and a water temperature of 23° C. to 25° C. After mice entered into water, a 6-minute timing was conducted, the cumulative immobility time (the criteria for determining immobility: the mice stopped struggling in the water, or floated with only small limb movements to keep the head float on the water) within the last four minutes was recorded. Each group of mice was operated in parallel.
(§2) Experimental data processing: The experimental results were expressed as mean standard error (x SD). Statistical analysis was performed using t-test to determine whether it was significant. […] Then, the t-test was performed on the experimental index of forced swimming to determine whether it had antidepressant effect.

ICR mice [2] = assay: Tail suspension test (TST), Example 39; format: in vivo; conditions: gavage 10 mg/Kg for 6 days, t-test
From the text: Tail Suspension Test (TST) to Investigate the Antidepressant Activity of Some Compounds and Some Natural Products of the Present Invention
as §1, with “dose” for “dose of the administration group”
Specific procedures: The mice were continuously administered for 6 days, and tested 1 hour after the last administration. Firstly, the spontaneous activity of the mice was measured by the open field method, that is, the mice were individually placed in a cylindrical glass jar for 4 minutes, and the number of lifting arms within the last 2 minutes was recorded. Then the tail of the mice was stick onto the horizontal bar by the tape at 2 cm from the tip of the tail, and the animal eyesight was separated by the surrounding plates. The horizontal bar was about 25 cm from the ground, so that the mouse was about 10 cm from the ground, and the timing was 6 min. The cumulative immobility time within the last 4 minutes was recorded. Each group of mice was operated in parallel.
as §2, with “tail suspension test” for “forced swimming”

[3] = Acta Pharmacologica Sinica 2014; 35 (9): 1188-1198; cited from earlier work
ICR mice [4] = assay: Toxicity observed during antidepressant efficacy screening (FST and TST animal batch); format: in vivo; conditions: same animal batch as efficacy screening, gavage 10 mg/Kg
From the text: as §1
as §1, with “The specific administration method was gavage administration, and the administration dose of the administration group was 10 mg/Kg, and the blank control group was given an equal volume of 0.5% CMC-Na.” left out

rats [5] = assay: Tail suspension test in rat model, compound C-11 versus fluoxetine, Example 41; format: in vivo
Method: On the day of the behavioral test, animals were dosed twice and administered orally 4 h and 1 h before the behavioral test. During the experiment, the tail of the rat was hung on a tail suspension test stand about 15 cm away from the ground with a tape or a clip at about 1 cm away from the tail end. […] The experimental time for each group was 6 minutes.

rats [6] = assay: Forced swimming test in rat model, compound C-11 versus fluoxetine, Example 41; format: in vivo
Method: (§3) The rats were placed in a cylindrical jar 24 hours before administration to accommodate the underwater environment for 15 min. On the day of the behavioral test, animals were administered twice and administered orally 4 h and 1 h before the behavioral test. The rats were individually placed in a cylindrical glass jar, timed for 6 minutes, and the number of arm lift was recorded within the last 2 minutes. The rats were then placed in a cylindrical glass jar having 30 cm high and 20 cm in diameter. […] Water temperature was 23° C.-25° C.

mice [7] = assay: Tail suspension test in mouse model, compound C-11 versus fluoxetine, Example 40; format: in vivo; conditions: FIG. 2
Method: On the day of the behavioral test, animals were dosed twice and administered orally 4 h and 1 h before the behavioral test. During the experiment, the tail of the mouse was hung on a tail suspension test stand about 15 cm away from the ground with a tape or a clip at about 1 cm away from the tail end. The mice struggled to overcome the abnormal posture, but appeared intermittent immobility after a period of activity showing disappointment state. The experimental time for each group was 6 minutes. Since most of the mice struggled actively for the first two minutes, the immobility time within the last four minutes was recorded.

[8] = system: C57 mice susceptible to social defeat by CD-1 aggressive mice; assay: Social defeated stress (SDS) model, Example 42; format: in vivo; conditions: 10 mg/kg gavage every day
Method: Male CD-1 aged 4-6 months mice which had passed childbearing age were raised separately, allowed to eat freely and adapt to the environment for about one week. Male C57 mice (aged 8-20 weeks differently) were used to screen for aggressive CD-1 mice. The mice screened by C57 were placed directly in the cage of CD-1 for 3 minutes, and the latency period for CD-1 to start showing offensive was recorded, and then the mice screened by C57 were moved out. For each CD-1 mouse, the same C57 was used to screen it three times a day, and different C57-selected mice were selected every day for a total of three days of screening. […] After screening for CD-1 aggressive mice for modeling, each C57 test mouse was exposed to different CD-1 aggressive mice for 10 consecutive days, 10 minutes each day. […] After 10 minutes of contact, the test mice were isolated from the invaders. Test mice and aggressive mice were placed in adjacent sections of the same squirrel cage, separated by a porous transparent plastic baffle, allowing test mice to be exposed under a threatening chronic stress stimulation for the next 24 hours. The control mice were placed in cages having the same structure, but the other side of the baffle was placed with other mice of the same line that were replaced daily. After 24 hours after the end of the last day of the experiment, we evaluated CSDS-induced social behavioral changes and selected all susceptible mice based on previous reports. The social interaction ratio (SI ratio) was calculated according to the following formula: SI ratio=time for the mouse in the interaction area when the aggressor exists/time for the mouse in the interaction area when the aggressor is absent. […] All selected test mice and control mice were then housed individually for 3 weeks. […] The mice in the vehicle group were administered by gavage with 0.5% CMC-Na every day. The SI ratio was assessed once a week.
Two-way ANOVA was used to analyze and LSD method was used for the multiple comparisons of calibration results. The data were expressed in Mean sem. […]

mice [9] = assay: Forced swimming test in mouse model, compound C-11 versus fluoxetine, Example 40; format: in vivo; conditions: FIG. 1
Method: as §3, with “The mice were placed” for “The rats were placed”, “test. The mice were individually” for “test. The rats were individually”, “minutes. The mice were then” for “minutes. The rats were then”, “C.-25° C. After the mice entered into the water, a 6-minute video was taken. […] Each group of mice was operated in parallel.” for “C.-25° C.”

[10] = rats, oral 4 h and 1 h before the test, dose not given
[11] = dose 3.46 mg/kg oral, vs vehicle group, FIG. 3
[12] = mice, oral 4 h and 1 h before the test, vs blank group

C[C@H]1CC[C@@]2(OC1)O[C@H]1C[C@H]3C4CC[C@@H]5C[C@@H](O[C@@H]6OC(CO)[C@H](O)[C@H](O)C6O[C@@H]6OC(CO)[C@@H](O)[C@H](O)C6O)CC[C@]5(C)C4CC[C@]3(C)C1[C@@H]2C (stereo partly shown) [timosaponin A3, reference compound]
effect on immobility time of mice in forced swimming test compared with the blank group (in words) (ICR mice [1]): could not significantly reduce the immobility time | effect on immobility time of mouse in tail suspension test compared with the blank group (in words) (ICR mice [2]): significant antidepressant activity | toxicity [3]: significant toxicity

C[C@H]1CC[C@@]2(OC1)O[C@H]1C[C@H]3[C@@H]4CC[C@@H]5C[C@H](NC(=O)NC6CCCCC6)CC[C@]5(C)[C@H]4CC[C@]3(C)[C@H]1[C@@H]2C [compound C-11]
effect on immobility time of mice in forced swimming test compared with the blank group (in words) (ICR mice [1]): extremely significant antidepressant activity | toxicity observed (ICR mice [4]): No significant toxicity was observed | effect on cumulative immobility time of rats in tail suspension test (rats [5]; dose 3.46 mg/kg oral, vs vehicle group, FIG. 4): significantly reduce the cumulative immobility time | effective dose compared with fluoxetine (rats [5]; rat tail suspension test, FIG. 4): significantly lower than that of the positive drug fluoxetine | effect on immobility time of rats in tail suspension test (in words) (rats [5]; [10]): significantly reduced the immobility time | effect on immobility time of mouse in tail suspension test compared with the blank group (in words) (ICR mice [2]): extremely significant antidepressant activity | effect on immobility time of rats in forced swimming test (rats [6]; dose 1.73 mg/kg oral, vs vehicle group, FIG. 3): significantly reduce the immobility time | effect on immobility time of rats in forced swimming test (rats [6]; [11]): significantly reduce the immobility time | effect on wall climbing behavior / wall climbing time of rats in forced swimming test (rats [6]; [11]): significantly increases the wall climbing time | effective dose compared with fluoxetine (rats [6]; rat forced swimming test, FIG. 3): significantly lower than that of the positive drug fluoxetine | effect on cumulative immobility time of rats in the forced swimming test (in words) (rats [6]; [10]): significantly reduced the cumulative immobility time | effect on cumulative immobility time of the mouse in tail suspension test (in words) (mice [7]; [12]): significantly reduced the cumulative immobility time | effective dose compared with fluoxetine (mice [7]; mouse tail suspension test): only half of that of fluoxetine | duration of oral administration that effectively alleviates depressive symptoms [8]: 1-2 weeks | effect on cumulative immobility time of mice in the forced swimming test (in words) (mice [9]; [12]): significantly reduced the cumulative immobility time | effective dose compared with fluoxetine (mice [9]; mouse forced swimming test): only half of that of fluoxetine
